Positions count from the first letter of the chain named. Values joined by “and” are separate entries in the source; they are usually repeats but may differ in a detail not shown here. Identical values can stand only once.
Legend:
OCT2 = molecular target: T1, OCT2 (Homo sapiens, UniProt O15244); test: Screening of cellular uptake at 1 µM, OCT2-overexpressing HEK293 cells over empty vector control cells; conditions: 2 min
T1 sequence (O15244 1-555 S270A): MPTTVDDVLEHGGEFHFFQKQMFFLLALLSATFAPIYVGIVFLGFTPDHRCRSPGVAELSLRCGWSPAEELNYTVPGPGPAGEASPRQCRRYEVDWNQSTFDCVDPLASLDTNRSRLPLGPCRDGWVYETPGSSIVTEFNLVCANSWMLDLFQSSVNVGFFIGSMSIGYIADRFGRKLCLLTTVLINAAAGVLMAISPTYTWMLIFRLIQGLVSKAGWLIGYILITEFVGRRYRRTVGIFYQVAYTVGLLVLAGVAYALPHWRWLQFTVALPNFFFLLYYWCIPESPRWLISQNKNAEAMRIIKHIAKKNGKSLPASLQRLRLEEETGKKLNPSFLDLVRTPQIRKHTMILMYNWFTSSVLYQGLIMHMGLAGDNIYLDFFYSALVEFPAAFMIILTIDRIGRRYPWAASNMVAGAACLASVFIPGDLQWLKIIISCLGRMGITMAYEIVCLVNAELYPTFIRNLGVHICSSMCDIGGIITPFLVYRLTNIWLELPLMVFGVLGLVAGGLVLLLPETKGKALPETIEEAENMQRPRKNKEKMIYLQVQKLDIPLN
Description: (§1) Koepsell and Gorbulev (University of Würzburg, Germany).
(§2) Eighteen psychostimulants and hallucinogens were initially screened for their potential to be substrates for different polyspecific OCTs and high-affinity monoamine neurotransmitter transporters (Figure 3), as well as for the efflux transporter MATE2-K (Supplementary Figure S1).

[1] = four healthy volunteers; ref Toennes and Kauert, 2002; www.dosing.de and www.drugbank.ca; cited from earlier work
DAT [2] = molecular target: T2, DAT (Homo sapiens, UniProt Q01959); test: Concentration-dependent transport by DAT in HEK293 cells; conditions: DAT versus NET
wild-type OCT2 = molecular target: T3, wild-type OCT2 (Homo sapiens, UniProt O15244); test: Concentration-dependent transport by wild-type OCT2 in HEK293 cells
T3 sequence (O15244 1-555 S270A): T1 sequence (O15244 1-555 S270A)

OCT2 variant A270S = molecular target: T4, OCT2 variant A270S (Homo sapiens, UniProt O15244); test: Concentration-dependent transport by OCT2 variant A270S in HEK293 cells
T4 sequence (O15244 1-555): T1 sequence (O15244 1-555 S270A) with A270S

NET = NET (Homo sapiens, UniProt P23975); test: Screening of cellular uptake at 1 µM, NET-overexpressing HEK293 cells over empty vector control cells; conditions: 2 min
Description: (§3) The HEK293 cells were cultered in DMEM medium supplemented with 10% (v/v) fetal bovine serum as well as penicillin (100 U/ml) and streptomycin (100 μg/ml) obtained from Thermo Fisher Scientific (Darmstadt, Germany). Cells were seeded on 12-well plates coated with poly-D-lysine (Sigma-Aldrich, Taufkirchen, Germany) 48 h before the transport experiments and incubated at 37°C, 95% relative humidity, and 5% CO2. […] All cell lines were washed with 37°C HBSS+ and subsequently incubated with the pre-warmed substrate in HBSS+ at 37°C. The time points for measuring substrate uptake were 1 min for MATE2-K and 2 min for the other SLCs. […] The reaction was stopped by adding ice-cold HBSS+, and the cells were washed twice with ice-cold HBSS+ before lysis with 80% acetonitrile (LGC Standards, Wesel, Germany) including an internal standard. Subsequently, the intracellular substrate accumulation was determined using LC-MS/MS.
(§4) Intracellular accumulation was measured by HPLC-MS/MS using a Shimadzu Nexera HPLC system with a LC-30AD pump, a SIL-30AC autosampler, a CTO-20AC column oven, and a CBM-20A controller (Shimadzu, Kyoto, Japan). […] Peak integration and quantification of the analytes was done using the Analyst software (Version 1.6.2, AB SCIEX, Darmstadt, Germany) and determined by simultaneous measurement of standard curves with known concentrations.

DAT [3] = molecular target: T2, DAT; test: Screening of cellular uptake at 1 µM, DAT-overexpressing HEK293 cells over empty vector control cells; conditions: 2 min
Description: as §3, §4

OCT1 [4] = molecular target: T5, OCT1 (Homo sapiens, UniProt O15245); test: Inhibition of mescaline uptake by OCT1; assay type: in vitro ADME; design: expressed in transfected cells; conditions: 1 mM MPP^+; compared with empty vector-transfected cells
T5 sequence (O15245 1-554): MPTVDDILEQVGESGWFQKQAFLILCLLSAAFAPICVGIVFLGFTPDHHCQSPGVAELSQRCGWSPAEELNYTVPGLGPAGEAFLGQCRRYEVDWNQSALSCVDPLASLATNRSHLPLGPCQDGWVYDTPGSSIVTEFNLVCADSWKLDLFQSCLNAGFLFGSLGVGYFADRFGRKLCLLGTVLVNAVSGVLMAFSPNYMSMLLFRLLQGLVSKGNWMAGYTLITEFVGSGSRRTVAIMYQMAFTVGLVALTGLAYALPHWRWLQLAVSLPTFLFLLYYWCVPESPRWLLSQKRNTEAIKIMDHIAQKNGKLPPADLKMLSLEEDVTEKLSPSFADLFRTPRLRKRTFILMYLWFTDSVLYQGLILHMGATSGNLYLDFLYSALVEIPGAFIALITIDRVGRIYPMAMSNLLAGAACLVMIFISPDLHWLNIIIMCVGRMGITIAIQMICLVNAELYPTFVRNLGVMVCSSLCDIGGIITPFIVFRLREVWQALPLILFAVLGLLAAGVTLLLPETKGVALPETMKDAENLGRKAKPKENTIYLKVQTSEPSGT

OCT1 [5] = molecular target: T5, OCT1; test: Screening of cellular uptake at 1 µM, OCT1-overexpressing HEK293 cells over empty vector control cells; conditions: 2 min
Description: as §1, §2

OCT3 = molecular target: T6, OCT3 (Homo sapiens, UniProt O75751); test: Screening of cellular uptake at 1 µM, OCT3-overexpressing HEK293 cells over empty vector control cells; assay type: in vitro ADME; conditions: 2 min
T6 construct: Koepsell and Gorbulev (University of Würzburg); host or cells: HEK293
T6 sequence (O75751 1-556): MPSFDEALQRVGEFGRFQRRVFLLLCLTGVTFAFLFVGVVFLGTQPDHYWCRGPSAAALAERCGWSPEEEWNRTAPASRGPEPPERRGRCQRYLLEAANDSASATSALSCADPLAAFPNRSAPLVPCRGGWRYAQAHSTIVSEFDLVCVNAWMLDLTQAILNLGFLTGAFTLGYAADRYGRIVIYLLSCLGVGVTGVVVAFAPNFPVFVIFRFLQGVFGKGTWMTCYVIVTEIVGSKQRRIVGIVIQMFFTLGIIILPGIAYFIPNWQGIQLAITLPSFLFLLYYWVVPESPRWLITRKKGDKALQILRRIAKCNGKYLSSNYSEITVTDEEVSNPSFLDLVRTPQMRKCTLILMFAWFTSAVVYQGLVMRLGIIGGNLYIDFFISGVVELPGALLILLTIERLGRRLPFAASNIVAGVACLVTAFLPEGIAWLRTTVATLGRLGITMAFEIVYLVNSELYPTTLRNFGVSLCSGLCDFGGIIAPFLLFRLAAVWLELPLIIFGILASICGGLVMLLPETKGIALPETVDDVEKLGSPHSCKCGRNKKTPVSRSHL
Description: as §1, §2

MATE2-K = molecular target: T7, MATE2-K (Homo sapiens, UniProt Q86VL8); test: Screening of cellular uptake at 1 µM, MATE2-K-overexpressing HEK293 cells over empty vector control cells; assay type: in vitro ADME; conditions: 1 min
T7 construct: expressed in transfected cells
Description: as §1, §2

SERT = SERT (Homo sapiens, UniProt P31645); test: Screening of cellular uptake at 1 µM, SERT-overexpressing HEK293 cells over empty vector control cells; assay type: in vitro ADME; conditions: 2 min
OCT1*1 (WT) = molecular target: T8, OCT1*1 (WT) (Homo sapiens, UniProt O15245); conditions: net transport, 2 min
T8 sequence (O15245 1-554): T5 sequence (O15245 1-554)
Description: (§5) The cells were kept in culture for no more than 30 passages.
(§6) The HEK293 cells were cultered in DMEM medium supplemented with 10% (v/v) fetal bovine serum as well as penicillin (100 U/ml) and streptomycin (100 μg/ml) obtained from Thermo Fisher Scientific (Darmstadt, Germany). Cells were seeded on 12-well plates coated with poly-D-lysine (Sigma-Aldrich, Taufkirchen, Germany) 48 h before the transport experiments and incubated at 37°C, 95% relative humidity, and 5% CO2. Cell lines overexpressing MATE2-K were incubated with 30 mM NH4Cl in HBSS+ (10 mM HEPES in HBSS, pH 7.4; Thermo Fisher Scientific, Darmstadt, Germany) for 30 min prior to the assay to invert the direction of transport. All cell lines were washed with 37°C HBSS+ and subsequently incubated with the pre-warmed substrate in HBSS+ at 37°C. […] Subsequently, the intracellular substrate accumulation was determined using LC-MS/MS.
(§7) Intracellular accumulation was measured by HPLC-MS/MS using a Shimadzu Nexera HPLC system with a LC-30AD pump, a SIL-30AC autosampler, a CTO-20AC column oven, and a CBM-20A controller (Shimadzu, Kyoto, Japan). […] Peak integration and quantification of the analytes was done using the Analyst software (Version 1.6.2, AB SCIEX, Darmstadt, Germany) and determined by simultaneous measurement of standard curves with known concentrations. […]

OCT1*3 (R61C) = molecular target: T9, OCT1*3 (R61C) (Homo sapiens, UniProt O15245, R61C)
T9 sequence (O15245 1-554 R61C): T5 sequence (O15245 1-554) with R61C
Description: as §5, §6, §7

OCT1*6 (M420del, C88R) = molecular target: T10, OCT1*6 (M420del, C88R) (Homo sapiens, UniProt O15245, C88R/DEL420-420)
T10 sequence (O15245 with tags, fused parts or gaps C88R/DEL420-420): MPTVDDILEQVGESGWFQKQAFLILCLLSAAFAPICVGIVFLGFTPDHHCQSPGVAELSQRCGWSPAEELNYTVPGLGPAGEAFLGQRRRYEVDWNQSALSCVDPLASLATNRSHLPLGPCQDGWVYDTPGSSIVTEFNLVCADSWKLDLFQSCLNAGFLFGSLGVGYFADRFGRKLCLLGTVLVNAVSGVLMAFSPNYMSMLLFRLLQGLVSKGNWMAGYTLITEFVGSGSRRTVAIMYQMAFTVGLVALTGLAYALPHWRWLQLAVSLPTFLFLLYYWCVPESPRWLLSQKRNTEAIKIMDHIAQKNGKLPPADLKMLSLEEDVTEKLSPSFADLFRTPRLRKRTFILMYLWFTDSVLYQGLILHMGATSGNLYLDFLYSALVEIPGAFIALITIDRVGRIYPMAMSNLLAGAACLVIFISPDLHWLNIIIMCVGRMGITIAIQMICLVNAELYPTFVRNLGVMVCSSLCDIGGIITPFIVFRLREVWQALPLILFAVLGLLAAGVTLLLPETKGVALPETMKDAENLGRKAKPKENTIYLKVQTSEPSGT
Description: as §5
The HEK293 cells were cultered in DMEM medium supplemented with 10% (v/v) fetal bovine serum as well as penicillin (100 U/ml) and streptomycin (100 μg/ml) obtained from Thermo Fisher Scientific (Darmstadt, Germany). Cells were seeded on 12-well plates coated with poly-D-lysine (Sigma-Aldrich, Taufkirchen, Germany) 48 h before the transport experiments and incubated at 37°C, 95% relative humidity, and 5% CO2. Cell lines overexpressing MATE2-K were incubated with 30 mM NH4Cl in HBSS+ (10 mM HEPES in HBSS, pH 7.4; Thermo Fisher Scientific, Darmstadt, Germany) for 30 min prior to the assay to invert the direction of transport. All cell lines were washed with 37°C HBSS+ and subsequently incubated with the pre-warmed substrate in HBSS+ at 37°C. The time points for measuring substrate uptake were 1 min for MATE2-K and 2 min for the other SLCs. […] It was assumed to be linear for the other transporters as well, based on previous experience with these expression systems. […] Subsequently, the intracellular substrate accumulation was determined using LC-MS/MS.
as §4
For the screenings, cellular uptake measured in cell lines overexpressing the respective transporter was divided by the uptake measured in an empty vector control cell line to calculate normalised ratios to enable comparisons between test compounds. For studying transport kinetics, the net transport mediated by the overexpressed transporters was calculated by subtracting the cellular uptake measured in an empty vector control cell line from the uptake in cell lines overexpressing the respective transporter. […]

T2 sequence (Q01959 whole entry): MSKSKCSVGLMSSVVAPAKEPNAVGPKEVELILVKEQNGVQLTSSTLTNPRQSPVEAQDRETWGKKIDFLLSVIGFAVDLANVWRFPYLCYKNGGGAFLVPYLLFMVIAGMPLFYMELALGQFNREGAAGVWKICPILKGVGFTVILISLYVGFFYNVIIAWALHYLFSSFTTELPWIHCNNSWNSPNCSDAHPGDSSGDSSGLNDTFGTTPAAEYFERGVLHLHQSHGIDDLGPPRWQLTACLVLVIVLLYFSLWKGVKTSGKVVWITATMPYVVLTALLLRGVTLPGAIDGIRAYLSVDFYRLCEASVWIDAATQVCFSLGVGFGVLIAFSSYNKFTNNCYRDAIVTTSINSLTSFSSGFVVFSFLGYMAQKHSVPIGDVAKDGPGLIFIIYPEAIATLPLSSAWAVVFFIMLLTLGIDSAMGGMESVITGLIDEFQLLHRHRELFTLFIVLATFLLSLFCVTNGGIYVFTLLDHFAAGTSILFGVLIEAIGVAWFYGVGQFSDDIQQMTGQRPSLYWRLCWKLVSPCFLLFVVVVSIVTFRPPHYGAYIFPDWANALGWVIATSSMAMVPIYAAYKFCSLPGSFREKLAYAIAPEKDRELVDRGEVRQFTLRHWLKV
Sequence of NET (P23975 whole entry): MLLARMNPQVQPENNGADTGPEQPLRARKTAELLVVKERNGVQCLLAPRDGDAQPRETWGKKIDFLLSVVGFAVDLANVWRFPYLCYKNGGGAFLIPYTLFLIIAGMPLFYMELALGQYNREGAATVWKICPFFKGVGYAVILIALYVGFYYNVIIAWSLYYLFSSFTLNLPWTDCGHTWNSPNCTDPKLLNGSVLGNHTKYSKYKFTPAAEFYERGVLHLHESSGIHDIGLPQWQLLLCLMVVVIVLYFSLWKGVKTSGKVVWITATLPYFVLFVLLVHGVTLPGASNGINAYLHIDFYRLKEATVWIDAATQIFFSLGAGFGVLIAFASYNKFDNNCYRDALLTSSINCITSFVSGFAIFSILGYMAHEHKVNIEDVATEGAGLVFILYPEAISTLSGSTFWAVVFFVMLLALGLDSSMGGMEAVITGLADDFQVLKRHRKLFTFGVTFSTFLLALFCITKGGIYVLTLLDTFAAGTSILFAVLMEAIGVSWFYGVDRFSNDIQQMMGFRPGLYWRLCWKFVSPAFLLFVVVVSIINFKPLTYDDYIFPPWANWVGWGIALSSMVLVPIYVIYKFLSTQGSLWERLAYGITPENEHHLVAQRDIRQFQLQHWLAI
T7 sequence (Q86VL8 1-566 isoform Q86VL8-3): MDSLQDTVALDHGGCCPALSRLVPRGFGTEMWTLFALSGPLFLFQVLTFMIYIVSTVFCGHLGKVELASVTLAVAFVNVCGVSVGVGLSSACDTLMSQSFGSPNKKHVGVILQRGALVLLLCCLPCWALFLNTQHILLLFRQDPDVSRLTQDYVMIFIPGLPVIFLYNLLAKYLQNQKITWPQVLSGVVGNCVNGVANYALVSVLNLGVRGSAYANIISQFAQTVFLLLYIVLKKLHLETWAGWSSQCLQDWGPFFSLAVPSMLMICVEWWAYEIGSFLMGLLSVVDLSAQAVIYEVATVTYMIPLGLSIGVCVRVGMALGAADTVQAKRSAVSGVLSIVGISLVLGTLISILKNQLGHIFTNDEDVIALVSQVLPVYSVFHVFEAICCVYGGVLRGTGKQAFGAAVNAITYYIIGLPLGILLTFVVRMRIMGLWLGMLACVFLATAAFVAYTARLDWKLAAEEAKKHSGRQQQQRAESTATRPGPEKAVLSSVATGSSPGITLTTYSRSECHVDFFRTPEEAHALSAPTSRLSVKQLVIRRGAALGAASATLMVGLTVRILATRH
Sequence of SERT (P31645 whole entry): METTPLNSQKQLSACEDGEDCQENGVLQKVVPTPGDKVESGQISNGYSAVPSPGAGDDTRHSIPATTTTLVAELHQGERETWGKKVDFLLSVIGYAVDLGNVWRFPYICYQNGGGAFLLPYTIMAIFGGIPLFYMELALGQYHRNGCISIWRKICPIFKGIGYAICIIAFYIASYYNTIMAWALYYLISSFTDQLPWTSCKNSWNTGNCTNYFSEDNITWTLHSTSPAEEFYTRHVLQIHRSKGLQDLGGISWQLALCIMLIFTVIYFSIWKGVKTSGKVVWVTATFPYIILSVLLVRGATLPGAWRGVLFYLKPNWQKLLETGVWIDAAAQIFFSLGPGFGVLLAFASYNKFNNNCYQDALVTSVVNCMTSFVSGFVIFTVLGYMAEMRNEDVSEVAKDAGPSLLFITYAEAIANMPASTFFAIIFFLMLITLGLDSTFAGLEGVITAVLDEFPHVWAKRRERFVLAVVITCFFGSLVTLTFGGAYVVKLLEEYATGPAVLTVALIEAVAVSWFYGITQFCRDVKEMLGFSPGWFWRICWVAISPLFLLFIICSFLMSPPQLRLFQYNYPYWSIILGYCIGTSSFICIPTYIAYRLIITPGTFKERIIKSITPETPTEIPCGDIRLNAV

Row | Compound | ratio of uptake in transporter-transfected cells over empty vector control cells (OCT2) | excreted unchanged in urine [1] | Km higher for DAT compared with NET (DAT [2]) [fold] | vmax higher for DAT compared with NET (DAT [2]) [fold] | vmax (wild-type OCT2; OCT2 WT) | Km at 2 min (wild-type OCT2; human, pH 7.4) [µM] | vmax (OCT2 variant A270S; OCT2 A270S) | Km at 2 min (OCT2 variant A270S; human, pH 7.4) [µM] | ratio of uptake in transporter-transfected cells over empty vector control cells (NET) | ratio of uptake in transporter-transfected cells over empty vector control cells (DAT [3]) | inhibition of mescaline uptake by OCT1 (OCT1 [4]) | ratio of uptake in transporter-transfected cells over empty vector control cells (OCT1 [5]) | ratio of uptake in transporter-transfected cells over empty vector control cells (OCT3) | ratio of uptake in transporter-transfected cells over empty vector control cells (MATE2-K) | ratio of uptake in transporter-transfected cells over empty vector control cells (SERT) | vmax (OCT1*1 (WT)) | vmax (OCT1*3 (R61C)) | transport activity (OCT1*6 (M420del, C88R); OCT1*6) | Km (OCT1*6 (M420del, C88R); OCT1*6 (M420del, C88R)) | vmax (OCT1*6 (M420del, C88R); OCT1*6 (M420del, C88R))
1 | C[C@H](N)[C@@H](O)c1ccccc1 [Cathine, (+)-norpseudoephedrine] | 4- to 6 fold | 46–65% | 21 | 10 | 570.1 (± 94.3) pmol × mg protein^-1 × min^-1 | 46 ± 17.3 | 505.4 (± 168.1) pmol × mg protein^-1 × min^-1 | 58.4 | 4 fold | 7 fold | – | – | – | – | – | – | – | – | – | –
2 | C[n+]1ccc(-c2ccccc2)cc1 [MPP^+, 1-methyl-4-phenylpyridinium] | – | – | – | – | – | – | – | – | – | – | completely inhibited | – | – | – | – | – | – | – | – | –
3 | COc1cc(CCN)cc(OC)c1OC [Mescaline] | – | – | – | – | – | – | – | – | not transported much | not transported much | – | more than 8 fold | not transported much | not transported much | not transported much | 642 pmol × mg protein^−1 × min^−1 and 642 ± 57 pmol × mg protein^−1 × min^−1 | 391 ± 266 pmol × mg protein^−1 × min^−1 | very low transport activity | Not determinable | Not determinable
